Results as given in PubChem BioAssay AID2740 (NMMLSC, 2010).
Values joined by “and” are separate entries in the source; they are usually repeats but may differ in a detail not shown here. Equal entries are not always repeated. Active and inactive are the calls of the source.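 Rule for the calls: active = compounds whose fitted half-maximal concentration for changing the GFP signal is at or below a set limit; inactive = the rest.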

tested on: not listed separately; assay: TOR pathway RPL19A-GFP modulators, concentration series – cell-based, S. cerevisiae, flow cytometry, MLPCN hits, dose response (AID 2740);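 for GFP fluorescence, lower = active: background is signal of the same compound in parental non-GFP s288c yeast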; details: S. cerevisiae RPL19A-GFP strain, flow cytometry fluorescence, 3 h; at 33 µM (top of the series)

SMILES | GFP fluorescence, lower = active (kMESF (background-subtracted))
Cc1[nH]n(-c2ccccc2)c(=O)c1C(c1ccccc1[N+](=O)[O-])C(C#N)C#N (stereo unspecified) | 24.7 (inactive)
COc1ccc(-c2cc3cc(C(=O)O)ccn3c2C(=O)c2ccccc2)cc1 | 43.5 (inactive)
O=c1[nH]c(-c2ccc(Cl)cc2)cs1 | 41.6 (inactive)
CN(c1ccccc1)c1ccc(/C=c2\s/c(=C(/C#N)C(=O)C(C)(C)C)n(Cc3ccco3)c2=O)cc1 | 56 (inactive)
O=C(O)c1ccn2c(C(=O)c3ccccc3)c(-c3ccccc3)cc2c1 | 39.3 (inactive)
COc1ccc(C2(C)ON(c3ccccc3C(F)(F)F)C2=O)cc1 (stereo unspecified) | 34.3 (inactive)
CC[C@@]1(c2ccccc2OC)ON(c2ccccc2C(F)(F)F)C1=O | 35.9 (inactive)
O=[N+]([O-])c1ccc(O)c2ncccc12 | 25.5 (inactive) and 19.3 (inactive)
COc1ccc(C(c2c(C)[nH]n(C(N)=S)c2=O)C(C#N)C#N)cc1 (stereo unspecified) | 24.7 (inactive)
CCCOc1ccc(C(=O)NNC(=S)NC(=O)c2ccccc2)cc1 | 45.7 (inactive)
O=[N+]([O-])c1c(Nc2ccccn2)cc(Cl)c2nonc12 | 68.3 (inactive)
Clc1ccc(N=c2ssnc2Cl)cc1 | 36.9 (inactive)
O=c1c2cnn(-c3ccccc3)c2ncn1Cc1ccco1 | 35.6 (inactive)
O=C1N(c2ccccc2C(F)(F)F)O[C@@]1(c1ccccc1)C1CCCCC1 | 37.6 (inactive)
N=C1S/C(=C\c2ccco2)C(=O)N1c1nccs1 | 47.2 (inactive)
N/C(Cc1ccc(Cl)c(Cl)c1)=N\OC(=O)c1cccs1 | 40.7 (inactive)
O=C1C(Cl)=C(Nc2ccccc2O)C(=O)N1c1ccccc1 | 43.6 (inactive)
Cc1cccc(C(=O)NNC(=S)NC(=O)c2ccccc2)c1 | 48.3 (inactive)
O=C1ON=C(c2ccc(Cl)cc2)/C1=C/c1ccc(O)cc1 | 40.8 (inactive)
CN(C)NC(=S)Nc1ccc(S(=O)(=O)N2CCCCC2)cc1 | 44.8 (inactive)
COc1ccc(CCNC2=C(Cl)C(=O)N(CCc3ccc(OC)c(OC)c3)C2=O)cc1OC | 42.6 (inactive)
CC(C)[C@@]1(c2ccc(Cl)cc2)ON(c2ccccc2C(F)(F)F)C1=O | 39.1 (inactive)
O=S(=O)(c1ccccc1)c1ccc(C(F)(F)F)cn1 | 45.7 (inactive)

tested on: S. cerevisiae RPL19A-GFP strain, flow cytometry fluorescence, 3 h; assay: as above; details: not given

SMILES | EC50
O=[N+]([O-])c1cc(Cl)cc(/C=N\Nc2ccccn2)c1O | 8.02 µM
CN1CCN(C(=O)c2cc(COc3c(F)cccc3F)on2)CC1c1ccccc1 (stereo unspecified) | 8.03 µM
Cc1nn2c(-c3ccncc3)nnc2c2ccccc12 | 3.29 µM
CC1(C)C[C@H]2C=C(C=O)[C@]3(C=O)C[C@]3(C)[C@H]2C1 | 3.62 µM
Cc1ccc(NN2C(=O)C=C(c3ccc(Cl)cc3)C2=O)cc1 | 1.28 µM
O=[N+]([O-])c1ccc(O)c(/C=N/Nc2ccccn2)c1 | 16.6 µM
Cc1ccc2nc(Cl)c3nnnn3c2c1 | 5.33 µM
CNc1nc(N)c([N+](=O)[O-])c(Nc2cccc(F)c2)n1 | 7.46 µM
CCOc1ccc(N2C(=O)/C(=C\c3cccs3)C(=O)NC2=S)cc1 | 5.66 µM
Cc1ccc(/C=C2\C(=O)NC(=S)N(c3ccccc3F)C2=O)s1 | 1.36 µM
O=C(OCC(=O)N1CCN(C(=O)c2ccco2)CC1)c1cc(-c2cccc(Br)c2)nc2ccccc12 | 3.18 µM
N/C(Cc1ccc(Cl)cc1)=N\OC(=O)c1ccccc1 | 8.02 µM
O=C(Nc1ccccc1)c1nnsc1S(=O)(=O)c1ccc(Cl)cc1 | 2.5 µM
CCOC(=O)COc1ccc2ccccc2c1/C=C/[N+](=O)[O-] | 5.36 µM
Cn1ncc(S(=O)(=O)Cc2ccccc2)c(Cl)c1=O | 14.9 µM
CCOC(=O)c1c(C)oc2c1c(C(c1ccncc1)N1CCOCC1)c(O)c1ccccc12 (stereo unspecified) | 11.8 µM
CC1=NNC(=O)/C1=C\c1cn(-c2ccccc2)nc1-c1cccs1 | 3.14 µM
O=C(C#Cc1ccccc1)c1ccco1 | 25.6 µM
O=C(/C=C/c1cccc([N+](=O)[O-])c1)c1ccc([N+](=O)[O-])o1 | 3.5 µM
CC(=O)SC(C[N+](=O)[O-])c1cn(C(C)=O)c2ccccc12 (stereo unspecified) | 12.4 µM
O=C(CSC1=NS(=O)(=O)c2ccccc21)Nc1ccccc1 | 5.5 µM
O=C(OCC(=O)N1CCN(C(=O)c2ccco2)CC1)c1cc(-c2ccccc2)nc2ccccc12 | 6.98 µM and 3.89 µM
Cc1ccc(/C=C2/C(=O)ON=C2c2ccccc2)o1 | 11.9 µM
COc1ccc(N2C(=O)/C(=C/c3cccs3)C(=O)NC2=S)cc1 | 7.77 µM
O=C(/C=C/c1cccc(Cl)c1)c1nc2ccccc2[nH]1 | 4.06 µM
COc1ccc([N+](=O)[O-])c(S(=O)(=O)c2ccc(Cl)cc2)n1 | 13.1 µM
O=C1Oc2ccccc2C(=O)/C1=C/c1ccccc1O | 11 µM
O=C1c2sc3nc4ccccc4n3c2C(=O)N1c1ccccc1Cl | 19 µM
